Reference: US11672786B2, “Methods of treating diseases associated with repeat instability” (The Hospital for Sick Children, priority 2016, dated 2023)

What was measured:
[1] = test system: transgene transcript in the CAG-direction, HT1080-(CAG)850 cells; experiment: transgene mRNA quantification by quantitative RT-PCR; assay type: cell-based, human; conditions: NA 50 μM, 72 hr
Source text: FIG. 5 are results from experiments showing that NA induces CAG contractions in HT1080-(CAG)850 cells, independent of proliferation, dependent upon rCAG transcription. […] Panel B of FIG. 5 are histograms showing repeat length distributions in HT1080-(CAG)850 cells. Frequency distribution of unstable alleles is shown by gray bars. Frequency of stable alleles is shown by black bars. To facilitate comparisons, a dashed line indicates the unchanged CAG size. Allele lengths are grouped in bins spanning 50 repeats. […] More than 50 alleles were sized for each group. P-value was calculated by chi-square test (Table 2). […] P-value was calculated by Student's t-test. […] Quantitative reverse transcription (RT)-PCR was performed using TaqMan Gene Expression assays. […]
RNA was harvested from the HT1080-(CAG)850 cells at 72 hr after adding or not adding NA using the RNeasy Plus Micro Kit (Qiagen). Total RNA was primed with random hexamers and reverse transcribed with Superscript III (Life Technologies, Carlsbad, Calif.), followed by treatment with RNase H. Quantitative reverse transcription (RT)-PCR was performed using TaqMan Gene Expression assays or PrimeTime qPCR assays on an ABI PRISM 7900HT Sequence Detection System (Life Technologies) and the primer sequences shown in Table 1. […] The results were statistically analyzed using paired t-tests. […]

[2] = test system: long (CAG)20 slip-outs from (CAG)50●(CTG)30; experiment: band-shift NA-DNA binding, long (CAG)20 slip-out; design: species or system human; conditions: NA 0.15-50 μM, 4% polyacrylamide gel
Source text: FIG. 2 are the results of experiments showing that NA binds to long CAG slip-outs. […] The (CAG)n DNA sequence (left) can fold into an hairpin structure involving mismatched A-A pair flanking C-G base pairs (middle). NA molecules can intercalate into the DNA helix, with the 2-amino-1,8-naphthyridine moiety (in red) hydrogen bonding to guanine and 8-azaquinolone moiety (in blue) hydrogen bonding to adenine. […] Long slip-outs extruded as a single slip-out from a fully base-paired backbone of (CTG)n●(CAG)n, as described (Pearson et al., 2002, Nuc. Acids Res., 30:4534-47). DNAs were mixed with increasing concentrations of NA (0.15 μM, 0.75 μM, 7.5 μM and 50 μM) and resolved on 4% polyacrylamide gels. All lanes are from the same gel, and they were separated for clarity. NA-DNA complexes are shown by brackets, free DNA is indicated by arrowheads. […] The relative migration was measured for the linear and the three slip-outs substrates as the ratio of the migration distance of each NA-DNA complex to the migration distance of the free DNA. The migration distance was measured from the well to a consistent center point of each band. […]

naphthyridine-azaquinolone
effect on RNA transcript levels of transgene [1]: did not affect transcription of the CAG-repeats containing transcript
NA binding (band-shift) [2]: extensively bound
